Data set [1] is described as follows: Metal-chelating assay, binding stoichiometry (molar ratio method), Cu2+. In kind it is physicochemical. To be noted: ethanol, 30 min, compound 5 × 10^−5 M, one ion coordinates with two molecules. How it is done:
Binding stoichiometry was determined using the molar ratio method, with increasing concentrations of metal ions (from 0 to 1.5 × 10^−4 M) (Figures S1 and S2). Absorption spectra were collected 30 min after mixing. The change in absorption at the wavelength of maximum absorbance for the formed complex was plotted against the metal ion (M^2+ = Cu^2+, Zn^2+, and Fe^2+) to compound ratio (cM^2+/ccompound) and is presented in Figure 3. This graph allows the determination of the binding ratio between the newly synthesized compounds and metal ions. […] In contrast, the results for Fe^2+ indicate that only one Fe^2+ ion can bind to both compounds.
The metal-chelating ability of synthesized compounds in ethanol was assessed using UV/Vis spectrophotometer (Lambda 35, Perkin Elmer) recording spectra over a wavelength range of 230–600 nm in a 1 cm quartz cell. The mixture of compound at 5 × 10^−5 M of final concentration and metal ions at 1 × 10^−4 M of final concentration was incubated for 30 min at room temperature. The tested temperature was 25 °C. […]
The binding stoichiometry was assessed by adding increasing concentrations of metal ions (0–1.5 × 10^−4 M) to a fixed concentration of compound (5 × 10^−5 M) and incubating the mixture for 30 min at room temperature. The spectra were then measured as described above, and the ligand-to-metal chelation ratio in the complex was calculated.

The target of a further data set is eeAChE (Electrophorus electricus, UniProt O42275). Description: biochemical. The conditions noted are these: at 1 × 10^−4 M, 37 °C; for inhibition at 100 µM: read-out: Percentage Inhibition AChE. How it is done: The abilities of compounds to inhibit AChE and BuChE activity were determined following Ellman’s procedure, with AChI and BuChI as the enzyme substrate, respectively, and DTNB as a chromogenic reagent. AChE’s and BuChE’s working solutions were prepared at 20 mM TRIS and deionized water, respectively. AChI and BuChI solutions were prepared in deionized water. […] Stock solutions (10 mM) of investigated compounds were prepared daily by dissolving solid compounds in DMSO. The reaction mixture containing phosphate buffer, DTNB, enzyme, and compound was preincubated 30 min at 37 °C. After the preincubation time, the enzyme reaction was initiated by adding appropriate substrate and left to incubate for 6 min. After incubation, 0.1 M SDS was added to stop the reaction. […] A blank assay, containing all components except the enzyme, was used to account for non-enzyme reactions. The control solution contained all components except the inhibitor. All experiments were conducted in triplicate, and the results are expressed as the mean percentage enzyme activity compared to the control value. IC50 values were determined graphically using Origin 9 Microsoft Windows.

The test system of the next data set is MDA-MB-468 cells. Description: SRB assay, MDA-MB-468 cells. The format is cell-based, human. The conditions noted are these: for IC50: Homo sapiens, MDA-MB-468, 72 h after treatment, SRB, read-out: IC50 MDA-468. Here is the method: Two human breast cancer cell lines, MDA-MB-231 (HTB-26) and MDA-MB-468 (HTB-132), human cervical cancer cell line HeLa (CCL-2), and MRC-5 (CCL-171) fibroblasts were purchased from the American Type Culture Collection (ATCC, Manassas, VA, USA). All cell lines were cultured in Dulbecco’s Modified Eagle’s Medium (DMEM) with 4500 mg/L glucose and L-glutamine (Capricorn Scientific, Ebsdorfergrund, Germany), supplemented with 10% foetal bovine serum (PAN-Biotech, Aidenbach, Germany), 10,000 U/mL penicillin, and 10 mg/mL streptomycin solution (Capricorn Scientific) under standard conditions at 37 °C in a humidified 5% CO2 atmosphere (ESCO, Lifesciences Group, Singapore).
(§1) Cells were seeded on a 96-well plate (Thermo Fisher Scientific, Waltham, MA, USA) at 2 × 10^3 cells per well in DMEM medium. For the analysis of the concentration- and time-dependent effect of the analysed compounds, cell monolayers were treated 24 h after seeding with concentrations 1 × 10^−6, 1 × 10^−5, and 1 × 10^−4 M for 24, 48, or 72 h. Cell viability was detected using sulforhodamine B (SRB) assay, based on the staining of cellular proteins. The assay was performed according to the procedure described by Skehan et al.. The cells were fixed with 10% trichloroacetic acid (TCA, CARLO ERBA Reagents GmbH, Emmendingen, Germany) for 1 h at 4 °C, washed with water, and stained for 15 min with 0.4% SRB (Sigma-Aldrich Chemie GmbH, Steinheim, Germany) in 1% acetic acid. The unbound SRB dye was rinsed with 1% acetic acid, while the protein-bound dye was extracted with a 10 mM Tris base (Sigma-Aldrich). The absorbance was measured at 550 nm with a reference wavelength of 690 nm in a microplate reader (Wallac, VICTOR2 1420 Multilabel counter, PerkinElmer, Turku, Finland). The results were expressed as a percentage of the control, where the cell growth of the control is set to 100%. IC50, defined as the concentration that caused a 50% loss of cell growth, was calculated by non-linear regression analysis with the ED50plus v1.0 software. The selectivity index (SI) was determined according to the following formula:(2) SI=IC50 for fibroblast cell line/IC50 for tumour cell line
(§2) The assay was performed two times in 4 replicates for every experimental group. The statistical significance of differences between treated and untreated cells was estimated by the independent Student’s t-test, with the level of significance set at p < 0.05.
Background: Sulforhodamine B stains cellular protein and so reports cell mass.

For another data set, the system named is MDA-MB-231 cells. Description: SRB assay, MDA-MB-231 cells. The format is cell-based. To be noted: for IC50: Homo sapiens, MDA-MB-231, 72 h after treatment, SRB, read-out: IC50 MDA-231. How it is done:
All cell lines were cultured in Dulbecco’s Modified Eagle’s Medium (DMEM) with 4500 mg/L glucose and L-glutamine (Capricorn Scientific, Ebsdorfergrund, Germany), supplemented with 10% foetal bovine serum (PAN-Biotech, Aidenbach, Germany), 10,000 U/mL penicillin, and 10 mg/mL streptomycin solution (Capricorn Scientific) under standard conditions at 37 °C in a humidified 5% CO2 atmosphere (ESCO, Lifesciences Group, Singapore).
as §1, with “The absorbance was measured at 550 nm with a reference wavelength of 690 nm in a microplate reader (Wallac, VICTOR2 1420 Multilabel counter, PerkinElmer, Turku, Finland).” left out, “IC50, defined as the concentration that caused a 50% loss of cell growth, was calculated by non-linear regression analysis with the ED50plus v1.0 software.” left out
as §2

Chain of eeAChE (O42275 24-633): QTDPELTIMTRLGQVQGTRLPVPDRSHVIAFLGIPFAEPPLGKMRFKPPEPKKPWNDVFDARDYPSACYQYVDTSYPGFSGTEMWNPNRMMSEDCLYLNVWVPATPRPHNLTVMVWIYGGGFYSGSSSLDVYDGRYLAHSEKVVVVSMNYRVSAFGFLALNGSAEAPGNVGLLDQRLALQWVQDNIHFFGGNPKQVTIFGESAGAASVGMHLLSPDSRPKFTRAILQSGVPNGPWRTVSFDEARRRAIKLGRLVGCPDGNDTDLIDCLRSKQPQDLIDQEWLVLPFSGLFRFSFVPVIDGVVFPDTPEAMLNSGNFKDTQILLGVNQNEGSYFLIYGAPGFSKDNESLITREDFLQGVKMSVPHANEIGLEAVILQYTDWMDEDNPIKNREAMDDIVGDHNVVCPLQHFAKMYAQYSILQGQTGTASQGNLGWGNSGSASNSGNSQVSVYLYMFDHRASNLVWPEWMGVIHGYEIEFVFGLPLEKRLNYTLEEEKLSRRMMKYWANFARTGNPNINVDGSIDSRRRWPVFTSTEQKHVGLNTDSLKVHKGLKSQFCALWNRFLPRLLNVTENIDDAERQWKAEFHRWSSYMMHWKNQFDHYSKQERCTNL

The term inhibition denotes how much of the control response was suppressed. Usually IC50 stands for the concentration that gives 50% inhibition. `O=c1c(O)c(-c2ccc(O)c(O)c2)oc2c(CN3CCc4ccccc4C3)c(O)cc(O)c12` [Compound 2a]: the “binding stoichiometry Cu^2+” value in data set [1] is reported as 2. In addition, the inhibition at 100 µM at eeAChE stood at 33.3%. The IC50 is greater than 200 µM in the data set on MDA-MB-468 cells and 146 ± 7 µM in the data set on MDA-MB-231 cells. Besides, in the data set on MDA-MB-231 cells (72 h), the “Viability of MDA-231 cells” value is recorded as “recovered to the control level or even increased”.
As for `COc1cc2c(cc1OC)CN(Cc1c(O)cc(O)c3c(=O)c(O)c(-c4ccc(O)c(O)c4)oc13)CC2` [Compound 2b], the “binding stoichiometry Cu^2+” value in data set [1] came out at 2. Besides, the “Percentage Inhibition AChE” value on eeAChE turned out to be 15.4%. In addition, the inhibition at 100 µM at eeAChE came to 15%. For the same compound, the IC50 in the data set on MDA-MB-468 cells came to 109 ± 5 µM; in the data set on MDA-MB-231 cells, 106 ± 5 µM. In addition, the “highest inhibition of MDA-468 cells” value in the data set with MDA-MB-468 cells (highest concentration, 72 h) was determined as 56.56%.

(Values after paper PMC12068008 (International Journal of Molecular Sciences, 2024).)
